According to publication PMC9481570, “A small molecule antagonist of SMN disrupts the interaction between SMN and RNAP II” (Nature Communications, 2022):

Tests used:
[1] = biological target: T1, SMN (Homo sapiens, UniProt Q16637); assay: Biotin-Cmpd 1 pulldown from U2OS cell lysates and western blotting, SMN; assay type: binding; settings: U2OS cell lysate, 200 μM biotin-free competitor, 20 μM biotin-Cmpd 1
T1 construct: endogenous in cells; host or cells: U2OS
Procedure: U2OS cells were lysed in RIPA buffer (140 mM NaCl, 10 mM Tris-HCl, pH 7.6, 1% Triton, 0.1% sodium deoxycholate, 1 mM EDTA) containing protease inhibitors (Roche, 05892791001). The cell lysate was incubated with 20 μM biotin-Cmpd 1 overnight at 4 °C, then 30 μL streptavidin beads (Thermo Fisher, 20353) was added and incubated at 4 °C for 1 h. The beads were then washed with RIPA buffer for 3 times, 10 min/time and loading buffer was added and boiled for 5 min for elution. The eluted samples were separated by SDS-PAGE for western blotting (SMN monoclonal antibody, BD Transduction Laboratories, 610646, clone No. 8, dilution of 1:1000; TDRD3 rabbit monoclonal antibody, Cell signaling, 5492, clone No. 5492, dilution of 1:1000; SND1 polyclonal antibody, Bethyl, A302-883A, dilution of 1:2000; RFP polyclonal antibody, Abcam, ab62341, dilution of 1:1000; GFP monoclonal antibody, Santa Cruz Biotechnology, sc-9996, dilution of 1:1000; Streptavidin-Horseradish Peroxidase (HRP), Invitrogen, SA10001, dilution of 1:5000) as previously described[52],[53]. For the competition analysis, 200 μM biotin-free compound 1 or compound 15 was added at the same time when the biotin-Cmpd 1 was incubated with the cell lysates.

[2] = biological target: T2, WDR5 (WD40) (Homo sapiens, UniProt P61964); assay: ITC binding to WD40 repeats of WDR5; settings: Fig. 1c
T2 construct: WDR5 (aa 24–334); His (N, cleaved yes); made in house; host or cells: E. coli BL21 (DE3) Codon plus RIL
Description: (§1) The coding DNA fragments of following Tudor domains were cloned into pET28-MHL vector: SMN (aa 82–147), UHRF1 (aa 126–285), SMNDC1 (aa 53–130), TDRD3 (aa 554–611), SND1 (aa 650–910), TDRD2 (aa 327–420), FXR1 (aa 2–132), PHF1 (aa 28–87), SGF29 (aa 115–293), JMJD2A (aa 897–1101), 53BP1 (aa 1483–1606), SETDB1 (aa 190–410), LBR (aa 1–67), ZGPAT (aa 120–271). The coding regions of chromodomain of CBX7 (aa 8–62), PWWP domain of DNMT3A (aa 275–417), WD40 repeats of WDR5 (aa 24–334) and CW domain of ZCWPW2 (aa 21–78) were also subcloned into pET28-MHL vector to generate N-terminally His-tagged fusion protein. The MBT repeats of L3MBTL1 (aa 200–522) and L3MBTL2 (aa 170–625) were subcloned into pET28GST-LIC vector to generate N-terminally GST-His-tagged fusion protein. All the plasmids were generated by ligase independent cloning (Vazyme Biotech, C112 or ABclonal Technology, RK21020). […] The molecular weight of all protein samples was measured by mass spectrometry.
(§2) For the ITC measurement, the concentrated proteins were diluted into 20 mM Tris-HCl, pH 7.5, 150 mM NaCl (ITC buffer); the lyophilized compounds were dissolved in the same buffer, and the pH value was adjusted by adding 2 M NaOH or 2 M HCl. […] Compound concentrations were calculated from the mass and the volume of the solvent. […]

[3] = biological target: T3, 53BP1 (Homo sapiens, UniProt Q12888); assay: ITC binding to 53BP1; settings: Fig. 1c
T3 construct: 53BP1 (aa 1483–1606); His (N, cleaved yes); made in house; host or cells: E. coli BL21 (DE3) Codon plus RIL
Description: as §1, §2

T3 sequence (Q12888 1483-1606): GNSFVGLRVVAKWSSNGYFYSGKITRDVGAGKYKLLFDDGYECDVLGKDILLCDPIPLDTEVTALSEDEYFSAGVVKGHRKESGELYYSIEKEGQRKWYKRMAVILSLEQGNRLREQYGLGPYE
T1 sequence (Q16637 whole entry): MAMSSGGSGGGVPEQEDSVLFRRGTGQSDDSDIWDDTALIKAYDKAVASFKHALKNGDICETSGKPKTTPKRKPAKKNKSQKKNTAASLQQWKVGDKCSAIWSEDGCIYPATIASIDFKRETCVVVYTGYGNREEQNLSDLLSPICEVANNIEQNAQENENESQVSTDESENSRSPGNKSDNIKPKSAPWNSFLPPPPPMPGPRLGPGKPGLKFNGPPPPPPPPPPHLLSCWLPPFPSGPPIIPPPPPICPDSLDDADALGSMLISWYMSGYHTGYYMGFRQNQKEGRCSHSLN

For `Cn1c2c(c(=N)c3c1CCC3)CCC2` [Compound 1, 4-methyl-2,3,4,5,6,7-hexahydrodicyclopenta[b,e]pyridin-8(1H)-imine], the “competition of the pulldown of SMN by biotin-Cmpd 1” value [1] was “competed out”, the Kd [2] was over 244 µM and the Kd [3] was over 244 µM.
